38 compounds from PubChem BioAssay (NCI) can be followed below.

Structures are written as SMILES. Values joined by “and” are separate entries in the source; they are usually repeats but may differ in a detail not shown here. Equal values may be shown once.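 Grown in 96-well plates, cells were treated for 48 hours with each compound at five concentrations. Insufficient inhibition: endpoint recorded as highest concentration tested. Abbreviation: GI50, concentration required for 50% inhibition of growth. TGI: total growth inhibition.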

Some test systems named below: DLD-1 colon; M19-MEL melanoma; HOP-18 NSCLC; XF 498 CNS; MDA-N; DMS 273 small cell lung; RXF-631 renal.
Common to all, as to experiment: NCI anticancer screen, dose series, 48 h

On to `COc1cc(C2C(C(=O)Nc3ccccc3)=C(C)NC(C)=C2C(=O)Nc2ccccc2)ccc1O`, for which the TGI in the assay with DLD-1 colon, in the assay with M19-MEL melanoma, in the assay with HOP-18 NSCLC and in the assay with XF 498 CNS was above 100 µM each time.
As for `CC(=O)OC1CCC2(C)C(=CC(C3C=C4CC(OC(C)=O)CCC4(C)C4=C3C3CC5OC6(CCC(C)CO6)C(C)C5C3(C)CC4)C3=C2CCC2(C)C3CC3OC4(CCC(C)CO4)C(C)C32)C1` (stereo not drawn), in the assay with MDA-N, the TGI was found to be 30.9 µM.
Turning to `O=c1[nH]c(=S)[nH]c(O)c1/C=C1\C=CC=N1`, the TGI with DMS 273 small cell lung was 25.3 µM; with DLD-1 colon, 22 µM; in the assay with M19-MEL melanoma, above 100 µM; with HOP-18 NSCLC, 85.7 µM; in the assay on XF 498 CNS, 32.3 µM.
For the compound `CCNCC(O)c1ccc(N)c([N+](=O)[O-])c1` (stereo not drawn), the TGI in the assay with MDA-N is above 100 µM.
On to `O=[N+]([O-])c1ccccc1C1N2CCCCC2[C@@H]2c3[nH]c4ccccc4c3CCN12` (stereo partly drawn), for which the TGI was 23.4 µM in the assay on DMS 273 small cell lung; 36.3 µM in the assay with DLD-1 colon; 18.5 µM in the assay with M19-MEL melanoma; above 100 µM in the assay with HOP-18 NSCLC; 30.6 µM in the assay with XF 498 CNS; 32.8 µM in the assay on RXF-631 renal.
On to `Fc1ccccc1C1CC(C(c2ccccc2)c2ccccc2)=Nc2ccccc2S1` (stereo not drawn), for which the TGI is 20.9 µM in the assay on DMS 273 small cell lung; 23.6 µM in the assay with DLD-1 colon; 31.4 µM in the assay on HOP-18 NSCLC; 27.1 µM in the assay on XF 498 CNS; 27.2 µM with RXF-631 renal.
As for `O=[N+]([O-])c1ccc(Cl)c(C2SCc3nc4ccccc4n32)c1` (stereo not drawn), the TGI is above 100 µM in the assay with DMS 273 small cell lung, above 100 µM with DLD-1 colon, above 100 µM with M19-MEL melanoma and 67.7 µM with HOP-18 NSCLC.
Turning to `COc1ccc2c(c1)CC[C@@H]1C2CC[C@]2(C)C(=O)NC(=O)CC12` (stereo partly drawn), the TGI in the assay with DMS 273 small cell lung, in the assay on DLD-1 colon, in the assay on M19-MEL melanoma, in the assay on HOP-18 NSCLC and in the assay on XF 498 CNS was above 100 µM in each case.
As to `CN(C)c1ccc(/C=C/c2ccnc3ccccc23)cc1`, the TGI in the assay with MDA-N was 40.1 µM.
For the compound `CCc1cccc(C)c1NC(=O)NS(=O)(=O)c1ccc(C)cc1`, the TGI with DMS 273 small cell lung, with DLD-1 colon, in the assay with M19-MEL melanoma, in the assay with HOP-18 NSCLC, with XF 498 CNS and in the assay with RXF-631 renal was above 100 µM throughout.
For the compound `Cc1cc(C)nc(NS(=O)(=O)c2ccc(NC(=O)c3cccc4cc5ccccc5nc34)cc2)n1`, the TGI was above 100 µM with DMS 273 small cell lung; 98.4 µM in the assay on DLD-1 colon; 79 µM in the assay on M19-MEL melanoma; 98.2 µM with XF 498 CNS; above 100 µM with RXF-631 renal.
Regarding `CC1(C)OCN(c2ccc(Cl)cc2)Cn2c1nc1ccccc12`, the TGI in the assay with DMS 273 small cell lung, in the assay on DLD-1 colon, in the assay on M19-MEL melanoma, in the assay with HOP-18 NSCLC, in the assay on MDA-N and with XF 498 CNS was above 100 µM each time.
Consider `Cc1cc(C)c(C(=O)OC(c2ccccc2)C(c2ccccc2)N2CCOCC2)c(C)c1` (stereo not drawn), for which the TGI in the assay with DMS 273 small cell lung, in the assay on DLD-1 colon, with M19-MEL melanoma, with HOP-18 NSCLC, with XF 498 CNS and in the assay on RXF-631 renal was above 100 µM each time.
Take `CN(O)C(=O)Cc1ccccc1`: the TGI in the assay on DMS 273 small cell lung, in the assay with DLD-1 colon, in the assay with M19-MEL melanoma and with XF 498 CNS was above 100 µM each time.
Compound `CC(=O)Oc1cccc2c1C(=O)c1c(OC(C)=O)cc(C)cc1C2=O` gave a TGI with MDA-N above 100 µM.
The same measure, in the same setting: to `Oc1ccc2ccccc2c1N=Nc1ccccc1` belongs above 100 µM.
As for `C[Si](C)(C)/C=C/CN1C(=O)CCC1O` (stereo not drawn), the TGI in the assay on DMS 273 small cell lung, with DLD-1 colon, in the assay with M19-MEL melanoma, in the assay with HOP-18 NSCLC and in the assay on XF 498 CNS was above 100 µM in each case.
Regarding `COc1ccc(O)c2c1C(=O)CCCC2=O`, the TGI in the assay on DMS 273 small cell lung, in the assay on DLD-1 colon, with M19-MEL melanoma, in the assay with XF 498 CNS and in the assay on RXF-631 renal was above 100 µM throughout.
`CCOC(=O)C(C[Si](C)(C)C)P(=O)(OCC)OCC` (stereo not drawn): the TGI in the assay with DMS 273 small cell lung, in the assay with DLD-1 colon, in the assay on M19-MEL melanoma, with XF 498 CNS and with RXF-631 renal was above 100 µM in each case.
As to `CC1OC(O)C(O)C(O)C1O` (stereo not drawn), the TGI in the assay with MDA-N was above 100 µM.
With `O=[N+]([O-])c1ccc2c(N=Nc3c(O)ccc4ccccc34)c(O)cc(S(=O)(=O)O)c2c1`, in the assay on MDA-N, the GI50 is 45.3 µM; the TGI was 50 µM and > 100 µM.
As for `CCC1(CN(C)C)CC/C(=C\c2ccc3c(c2)OCO3)C1=O` (stereo not drawn), the TGI with DMS 273 small cell lung, in the assay on DLD-1 colon, with M19-MEL melanoma, in the assay on HOP-18 NSCLC and with RXF-631 renal was above 100 µM throughout.
As to `O=C1C2=C(c3ccccc31)C(c1ccccc1Cl)N1C(=O)CSC1=N2` (stereo not drawn), the TGI with DMS 273 small cell lung, in the assay on DLD-1 colon, with M19-MEL melanoma, in the assay with XF 498 CNS and in the assay with RXF-631 renal was above 100 µM each time.
As for `COc1cc(Br)c(CC2=NCCc3cc(OC)c(OC)cc32)cc1OC`, the TGI in the assay on DMS 273 small cell lung is 51.3 µM; in the assay with DLD-1 colon, above 100 µM; with M19-MEL melanoma, above 100 µM; with HOP-18 NSCLC it was above 100 µM; in the assay with RXF-631 renal it was above 100 µM.
Regarding `COc1cc2c(cc1C)n(O)c(C)c(C(=O)C/C(=N/NC(=O)C[N+](C)(C)C)C(=O)Nc1cccc(Cl)c1C)[n+]2=O`, the TGI in the assay with DMS 273 small cell lung, with DLD-1 colon, with HOP-18 NSCLC, in the assay with XF 498 CNS and in the assay on RXF-631 renal was above 100 µM throughout.
For `COc1ccccc1/C=C\c1cc(OC)c(OC)c(OC)c1`, the TGI in the assay on DMS 273 small cell lung was above 100 µM; in the assay on DLD-1 colon it was above 100 µM; in the assay on M19-MEL melanoma, above 100 µM; with HOP-18 NSCLC, above 100 µM; in the assay on XF 498 CNS, 48 µM; in the assay on RXF-631 renal, above 100 µM.
As to `Cc1ccc(Nc2ccc(Nc3ccc(C)cc3)c3c2C(=O)c2c(O)ccc(O)c2C3=O)cc1`, the TGI in the assay on DMS 273 small cell lung, with DLD-1 colon, with M19-MEL melanoma and in the assay on XF 498 CNS was above 100 µM in each case.
Regarding `CCOC(=O)C12CC1(C(=O)OCC)C1CCC2C1` (stereo not drawn), the TGI in the assay on DMS 273 small cell lung, in the assay on DLD-1 colon, in the assay on M19-MEL melanoma, in the assay with HOP-18 NSCLC and with RXF-631 renal was above 100 µM throughout.
Turning to `COc1ccc(C(=O)C=C2NCCN2)cc1`, the TGI with DMS 273 small cell lung, in the assay with DLD-1 colon, with M19-MEL melanoma and with HOP-18 NSCLC was above 100 µM throughout.
The compound `O=Cc1coc2ccccc2c1=O` showed a TGI in the assay with MDA-N of 52.3 µM.
Consider `Cc1ccc(NC(=O)C(=O)Cc2nc3ccccc3o2)c(C)c1`, for which the TGI with DMS 273 small cell lung, in the assay with DLD-1 colon, in the assay with M19-MEL melanoma, with XF 498 CNS and in the assay with RXF-631 renal was above 100 µM each time.
With `Cc1ccc(N2C(=O)/C(=C3\Sc4c(nc(C)[nH]c4=O)N3c3ccccc3)SC2=S)cc1`, the TGI was above 100 µM with DMS 273 small cell lung, above 100 µM in the assay on DLD-1 colon, above 100 µM in the assay with M19-MEL melanoma and 51.8 µM in the assay with XF 498 CNS.
In the case of `CCOC(=O)C(C)(C)Oc1ccc2c(-c3ccc(Cl)cc3)cc(=O)oc2c1`, the TGI in the assay with DMS 273 small cell lung, in the assay with DLD-1 colon, in the assay on M19-MEL melanoma and in the assay with RXF-631 renal was above 100 µM each time.
Consider `CC[C@@H]1OC2(C)CC(S(=O)(=O)c3ccccc3)CC1O2` (stereo partly drawn), for which the TGI with DMS 273 small cell lung, with DLD-1 colon, with M19-MEL melanoma, in the assay on HOP-18 NSCLC and in the assay on RXF-631 renal was above 100 µM each time.
As for `O=C1C(c2ccccc2)=C(c2ccccc2)C(c2ccc(CCCCCCc3ccc(C4=C(c5ccccc5)C(=O)C(c5ccccc5)=C4c4ccccc4)cc3)cc2)=C1c1ccccc1`, the TGI in the assay on DMS 273 small cell lung, in the assay on DLD-1 colon, in the assay on M19-MEL melanoma and in the assay with RXF-631 renal was above 100 µM throughout.
With `COC1=C(OC)CCC(/C(C#N)=C/c2ccc(OC)c(OC)c2)=C1`, the TGI in the assay with DMS 273 small cell lung, in the assay with DLD-1 colon, with M19-MEL melanoma, in the assay with HOP-18 NSCLC and with RXF-631 renal was above 100 µM throughout.
Regarding `COc1ccc(C2S/C(=C\c3ccc(OC)cc3OC)C(=O)N2NC(=O)Cc2ccccc2)cc1` (stereo not drawn), the TGI in the assay with DMS 273 small cell lung, in the assay with DLD-1 colon, with M19-MEL melanoma and with HOP-18 NSCLC was above 100 µM throughout.
As for `Cn1c(O)c(C(=O)Nc2ccc([N+](=O)[O-])cc2)c(=O)n(C)c1=S`, the TGI in the assay on DLD-1 colon was above 35.5 µM; with M19-MEL melanoma it was above 45.3 µM; in the assay with HOP-18 NSCLC, 6.85 µM.
